Source: article doi:10.1101/177311v3 (biorxiv, 2018)

Target: T1, mycL-Hmg2-GFP (1myc-Hmg2-GFP; Hmg2 transmembrane region) (Saccharomyces cerevisiae, UniProt P12684)
T1 sequence (P12684 1-535 limits assumed): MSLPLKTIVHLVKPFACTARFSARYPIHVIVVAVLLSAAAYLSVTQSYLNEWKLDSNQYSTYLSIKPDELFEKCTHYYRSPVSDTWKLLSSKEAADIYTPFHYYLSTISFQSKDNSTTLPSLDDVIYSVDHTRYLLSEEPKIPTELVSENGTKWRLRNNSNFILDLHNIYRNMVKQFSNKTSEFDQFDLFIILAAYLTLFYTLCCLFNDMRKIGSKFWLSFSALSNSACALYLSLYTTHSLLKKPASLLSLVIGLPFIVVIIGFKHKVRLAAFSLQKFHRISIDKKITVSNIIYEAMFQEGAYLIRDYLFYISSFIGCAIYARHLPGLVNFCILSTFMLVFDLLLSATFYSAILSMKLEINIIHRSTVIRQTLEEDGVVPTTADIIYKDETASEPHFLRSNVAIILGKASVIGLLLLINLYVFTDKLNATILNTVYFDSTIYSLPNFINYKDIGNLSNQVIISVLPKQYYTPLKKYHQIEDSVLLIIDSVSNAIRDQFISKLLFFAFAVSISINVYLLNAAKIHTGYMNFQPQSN
Experiment: limited trypsin proteolysis of microsomes, anti-myc immunoblot
Type: biochemical

Question: How did the EC50 turn out when CC(C)=CCC/C(C)=C/CC/C(C)=C/CC/C(C)=C/COP(=O)(O)OP(=O)(O)O [GGPP, geranylgeranyl pyrophosphate] was run?
Answer: Its EC50 is less than 200 nM.
